Data: ChEMBL document CHEMBL1201862, “PubChem BioAssay data set” (2004)
“And” between values parts separate entries of the source, which are not always exact repeats. Equal values may be shown once.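 Grown in 96-well plates, cells were treated for 48 hours with each compound at five concentrations. Insufficient inhibition: endpoint recorded as highest concentration tested. Here, GI50 denotes the concentration required for 50% inhibition of growth.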 The source made the active and inactive calls. Rule as the data show it: active = GI50 up to about 1.1 µM and inactive = higher.

Columns and labels:
Assay in all cases: NCI tumour cell line growth inhibition, 48 h
RXF 393 = test system: RXF 393
UACC-257 = test system: UACC-257
OVCAR-3 = test system: OVCAR-3
SK-OV-3 = test system: SK-OV-3
DU-145 = test system: DU-145
HCT-15 = test system: HCT-15
NCI-H522 = test system: NCI-H522
A498 = test system: A498
NCI/ADR-RES = test system: NCI/ADR-RES
T47D = test system: T47D
DMS-114 = test system: DMS-114
COLO 205 = test system: COLO 205
ACHN = test system: ACHN
OVCAR-4 = test system: OVCAR-4
HOP-62 = test system: HOP-62
M14 = test system: M14
MCF7 = test system: MCF7
PC-3 = test system: PC-3
MDA-MB-231 = test system: MDA-MB-231
DMS-273 = test system: DMS-273
OVCAR-5 = test system: OVCAR-5
BT-549 = test system: BT-549
SNB-78 = test system: SNB-78
LOX IMVI = test system: LOX IMVI
Malme-3M = test system: Malme-3M
Hs-578T = test system: Hs-578T
SNB-75 = test system: SNB-75
RPMI-8226 = test system: RPMI-8226
MDA-N = test system: MDA-N
NCI-H23 = test system: NCI-H23
U-251 = test system: U-251
MDA-MB-435 = test system: MDA-MB-435
786-0 = test system: 786-0
SNB-19 = test system: SNB-19
NCI-H226 = test system: NCI-H226
SR = test system: SR
HOP-18 = test system: HOP-18
HCC 2998 = test system: HCC 2998
XF498 = test system: XF498
OVCAR-8 = test system: OVCAR-8
KM12 = test system: KM12
SK-MEL-5 = test system: SK-MEL-5
NCI-H460 = test system: NCI-H460
IGROV-1 = test system: IGROV-1
SF-268 = test system: SF-268
SK-MEL-28 = test system: SK-MEL-28
UO-31 = test system: UO-31
HOP-92 = test system: HOP-92
CCRF-CEM = test system: CCRF-CEM
HCT-116 = test system: HCT-116
CAKI-1 = test system: CAKI-1
KM-20L2 = test system: KM-20L2
DLD-1 = test system: DLD-1
HL-60 = test system: HL-60
SN12C = test system: SN12C
M19-MEL = test system: M19-MEL
K562 = test system: K562
UACC-62 = test system: UACC-62
EKVX = test system: EKVX
SK-MEL-2 = test system: SK-MEL-2
SW-620 = test system: SW-620
A549 = test system: A549
SF-539 = test system: SF-539
MOLT-4 = test system: MOLT-4
HT-29 = test system: HT-29
TK-10 = test system: TK-10
SF-295 = test system: SF-295

Measured: GI50

NS(=O)(=O)OCCCCCCCOS(N)(=O)=O
inactive: RXF 393 289 µM | UACC-257 451 µM | OVCAR-3 361 µM | SK-OV-3 471 µM | DU-145 124 µM | NCI-H522 259 µM | A498 377 µM | NCI/ADR-RES 273 µM | T47D 246 µM | DMS-114 130 µM | COLO 205 394 µM | ACHN 64.9 µM | OVCAR-4 409 µM | HOP-62 142 µM | M14 187 µM | MCF7 101 µM | PC-3 249 µM | MDA-MB-231 445 µM | DMS-273 68.7 µM | OVCAR-5 408 µM | BT-549 151 µM | SNB-78 526 µM | LOX IMVI 161 µM | Malme-3M 437 µM | Hs-578T 527 µM | SNB-75 94.8 µM | RPMI-8226 296 µM | MDA-N 392 µM | NCI-H23 245 µM | U-251 198 µM | MDA-MB-435 410 µM | 786-0 144 µM | SNB-19 275 µM | NCI-H226 292 µM | SR 31.6 µM | HOP-18 689 µM | HCC 2998 300 µM | XF498 54.8 µM | OVCAR-8 221 µM | KM12 379 µM | SK-MEL-5 319 µM | NCI-H460 23 µM | IGROV-1 376 µM | SF-268 130 µM | SK-MEL-28 535 µM | UO-31 265 µM | HOP-92 215 µM | CCRF-CEM 46.8 µM | HCT-116 309 µM | CAKI-1 84.3 µM | KM-20L2 488 µM | DLD-1 495 µM | HL-60 33 µM | SN12C 133 µM | M19-MEL 383 µM | K562 347 µM | UACC-62 61.4 µM | EKVX 272 µM | SK-MEL-2 364 µM | SW-620 334 µM | A549 109 µM | SF-539 138 µM | MOLT-4 24.2 µM | HT-29 504 µM | TK-10 649 µM | SF-295 > 92.9 µM
349 µM: HCT-15

Nc1ncnc2c1ncn2C1OC(CO)C(O)C1O (stereo not given)
inactive: RXF 393 104 µM | DU-145 22.9 µM | NCI/ADR-RES 117 µM | T47D 77.3 µM | DMS-114 68.1 µM | ACHN 40.6 µM | HOP-62 61.9 µM and 70.5 µM | M14 > 100 µM | PC-3 31 µM | MDA-MB-231 > 100 µM | DMS-273 103 µM | SNB-78 > 450 µM | LOX IMVI 84.3 µM and 44.2 µM | Malme-3M 274 µM | SNB-75 117 µM | MDA-N > 100 µM | MDA-MB-435 > 100 µM | 786-0 43.3 µM | HOP-18 107 µM | HCC 2998 34.9 µM and 43.4 µM | XF498 > 450 µM | NCI-H460 22.3 µM | SF-268 232 µM | CCRF-CEM 36.7 µM and 34.3 µM | HCT-116 106 µM and 58.2 µM | KM-20L2 234 µM | DLD-1 > 373 µM | SN12C 136 µM | M19-MEL 333 µM | SK-MEL-2 97.1 µM | SW-620 153 µM | A549 132 µM | SF-539 179 µM | TK-10 > 100 µM

CCOC(=O)Oc1ccc2[nH]c3c(C)cc(N)c(C)c3c2c1
inactive: UACC-257 > 100 µM | OVCAR-3 > 100 µM | NCI-H522 > 100 µM | DMS-114 46.7 µM | COLO 205 > 100 µM | ACHN > 100 µM | OVCAR-4 > 100 µM | HOP-62 > 100 µM | M14 98.4 µM | DMS-273 > 100 µM | OVCAR-5 > 100 µM | SNB-78 > 100 µM | LOX IMVI > 100 µM | Malme-3M 87.7 µM | SNB-75 > 100 µM | RPMI-8226 72.3 µM | NCI-H23 > 100 µM | 786-0 > 100 µM | SNB-19 > 100 µM | NCI-H226 > 100 µM | SR > 100 µM | HOP-18 > 100 µM | HCC 2998 > 100 µM | XF498 > 100 µM | OVCAR-8 > 100 µM | KM12 68.4 µM | SK-MEL-5 > 100 µM | NCI-H460 > 100 µM | SF-268 > 100 µM | SK-MEL-28 > 100 µM | UO-31 > 100 µM | CCRF-CEM > 100 µM | HCT-116 > 100 µM | CAKI-1 > 100 µM | DLD-1 > 100 µM | HL-60 55.5 µM | SN12C > 100 µM | M19-MEL > 100 µM | K562 > 100 µM | EKVX > 100 µM | SK-MEL-2 > 100 µM | SW-620 > 100 µM | A549 > 100 µM | SF-539 > 100 µM | MOLT-4 78.9 µM | HT-29 > 100 µM | TK-10 > 100 µM | SF-295 > 100 µM
> 100 µM: HCT-15
